The values below are quoted from earlier work in patent US20170312269A1, “COMPOSITIONS AND METHODS FOR REDUCING FOOD CRAVINGS” (OREXIGEN THERAPEUTICS, INC., priority 2005, published 2017).

Molecules are shown by their SMILES.

For the data set the following is noted: in vivo; cited from earlier work.

As for `CNCCC(Oc1ccc(C(F)(F)F)cc1)c1ccccc1` (stereo not shown) [fluoxetine], the physiological half life entry was “about 9 hours”.
